Source: US20050129725A1, “Method of controlling pest and pest control agent” (KURARAY CO., LTD., priority 2002, published 2005)
Where two headings read alike, the source gives them in different places.

How the values were obtained:
Coptotermes formosanus = assay type: in vivo; conditions: for number of Coptotermes formosanus in test section: 30 ants in total; for number of Coptotermes formosanus in control section: untreated half of same schale
Procedure: Three sets of experiment systems were prepared wherein quartz sand allowed to absorb a suitable amount of water was spread on a 90 mm diameter schale in a thickness of 1 mm, a 5 mm width groove was formed on a diameter line to divide the dish into two, three 8 mm diameter circular filters impregnated with a suitable amount of a solution of farnesylacetone or phytone in acetone and air-dried were placed in one test section, and three untreated circular filters were placed in the control section.
In each experiment system were each released 10 worker ants of Coptotermes formosanus and raised in an incubator at 28° C., humidity 70%. After a certain time, the number of Coptotermes formosanus in the test section and the control section was counted. The repellence rate and mortality were calculated from the following formulas. Repellence rate={1−(number of the ants in the test section/number of the survived ants)}×100 (%) Mortality=number of the dead ants/30×100 (%)

[1] = Concentration of farnesylacetone in the dog kennel; assay type: physicochemical; conditions: kennel sprayed every week with 1% solution in ethanol; detection limit
Procedure: (§1) A dog raised in a dog kennel (vaporization area expanding means), the inside of which was sprayed every week with a 1% solution of farnesylacetone in ethanol with a spray container (reservoir means), and a dog raised in a dog kennel, the inside of which was sprayed every week with ethanol alone, were observed and compared for their behaviors for 30 min every day for one week. The dog raised in the farnesylacetone treated dog kennel scratched its body twice a day, but the dog raised in the dog kennel free of farnesylacetone treatment scratched its body 13 times a day. The concentration of farnesylacetone in the dog kennel was not more than 1 μg/L (detection limit). It is assumed that the fleas parasitic in dogs were repelled and decreased by farnesylacetone.

Blattella germanica = experiment: Box shelter lurking place choice test with coated paper sheets; assay type: in vivo; conditions: summary of Experimental Example 2
Procedure: A mixture of farnesylacetone (mixing ratio:cis-cis form/cis-trans form and trans-cis form/trans-trans form=15/50/35) and vitamin E (antioxidant) (weight ratio 99:1) was dissolved in methanol at 0.06 wt % and 0.3 wt %. The obtained solutions were coated on a 0.26 mm thick paper sheet at 167 g/l m^2, and air-dried to evaporate methanol, whereby sheets having a farnesylacetone coating at 0.1 g/m^2 and 0.5 g/m^2 were obtained and used as Example 3 and Example 4, respectively. Both a farnesylacetone coating sheet prepared on the very day and one left open and uncontrolled by hanging in a room at a room temperature of 21-24° C. for 2 weeks, where ventilation rate was 10-15 times per 1 hour, were evaluated in Experimental Examples 2-4 for repellence performance against the larvae of Blattella germanica, Camponotus japonicus and Anthrenus verbasci using untreated paper sheet as a control.
One box shelter (length 8 cm×side 12.5 cm×height 2 cm, made of white corrugated cardboard) having one entrance (width 1 cm×height 2 cm) and one of the test-day-made products of Example 3 and 4, the products left open and uncontrolled for 2 weeks of Example 3 and 4 and a control paper sheet, which was adhered to an interior floor surface, was prepared for each test sample. […]

[2] = Measurement of farnesylacetone concentration in the air (gas chromatography, FID); assay type: physicochemical; conditions: 1 hr
Procedure: Farnesylacetone (1 mL) was placed in a 50 mL sample bottle, and a large magnetic stirring bar capable of rotating the air as well was placed therein. […] Thereafter, the gas in the sample bottle was taken by 5 mL with a gas tight syringe, and using gas chromatography with an FID detector, the concentration of farnesylacetone was measured by the absolute calibration method.
(§2) Farnesylacetone (1 mL) was placed in a 50 mL sample bottle, and a large magnetic stirring bar capable of rotating the air as well was placed therein The bottle was placed neck-deep in a […] with rotation, and heated for 1 hr to fill the inside of the sample bottle with farnesylacetone vapor. Thereafter, the gas in the sample bottle was taken by 5 mL with a gas tight syringe, and using gas chromatography with an FID detector, the concentration of farnesylacetone was measured by an absolute calibration method. […] Almost simultaneously, the gas (5 mL) in the sample bottle was taken again, a propeller was set in a 10 L beaker, the gas was added into the sealed beaker, the air in the beaker was stirred with the propeller for 10 min to dilute the gas 2,000-fold, whereby gas containing […] farnesylacetone was obtained. […]

[3] = Odor and discomfort of sampled farnesylacetone gas in human
Procedure: Farnesylacetone (1 mL) was placed in a 50 mL sample bottle, and a large magnetic stirring bar capable of rotating the air as well was placed therein. The bottle was placed neck-deep in an oil bath at 130° C. with rotation, and heated for 1 hr to saturate the inside of the sample bottle with farnesylacetone vapor. Thereafter, the gas in the sample bottle was taken by 5 mL with a gas tight syringe, and using gas chromatography with an FID detector, the concentration of farnesylacetone was measured by the absolute calibration method.
as §2

[4] = test system: adult female Culex pipiens; experiment: Repellent effect of treated wire net bags (mouse as blood source) on blood sucking by Culex pipiens; assay type: in vivo; conditions: summary of Experimental Example 1
Procedure: A 20-mesh soft wire net was cut into 15×16 cm, folded into two, and open two sides (longitudinal and transverse sides) were folded to give a bag. Four of these bags were prepared. Farnesylacetone (mixing ratio:[…]/trans-trans form=15/50/35) was dissolved in ethanol at 0.2 wt % and 1 wt % and one wire net bag each was immersed in one of the obtained solutions for about 10 sec. The bag was taken out from the solution, and air-dried at room temperature for 30 min to give a farnesylacetone treated wire net bag. The wire net bag treated with farnesylacetone 0.2 wt % solution was taken as Example 1, and the wire net bag treated with farnesylacetone 1 wt % solution was taken as Example 2. […] The wire net bags of Examples 1 and 2 and Comparative Example 1 were evaluated in Experimental Example 1 for the repellent effect on adult female Culex pipiens using an untreated wire net bag as a control.
50 to 70 female adult Culex pipiens at 10-15 days after eclosion and having high blood sucking activity were released inside each of four adult raising cages (30×40×30 cm). […] As a blood sucking result, the number of the test Culex pipiens with swollen abdomen was counted at a certain time intervals after the start of the test, which number was divided by the number of test Culex pipiens to calculate a blood sucking rate (%). […]

fleas parasitic in dogs = experiment: Scratching behaviour of dog raised in sprayed dog kennel; assay type: in vivo; conditions: kennel sprayed every week with 1% solution in ethanol; observed 30 min every day for one week
Procedure: as §1

For `CC(=O)CCCC(C)CCCC(C)CCCC(C)C` (stereo not drawn) [phytone], the “death (number of the dead ants)” value (Coptotermes formosanus; concentration 10%, 1 day later) was 0, the repellence rate (Coptotermes formosanus; concentration 10%, 1 day later) was 63% and the “number of Coptotermes formosanus in test section” value (“number … in test section” for short) (Coptotermes formosanus; concentration 10%, 1 day later) was 11. The “number of Coptotermes formosanus in control section” value (from here on “number … in control section”) (Coptotermes formosanus; concentration 10%, 1 day later) was 19, the “death (number of the dead ants)” value (Coptotermes formosanus; concentration 50%, 1 day later) was 1 and the repellence rate (Coptotermes formosanus; concentration 50%, 1 day later) was 86%. The “number … in test section” value (Coptotermes formosanus; concentration 50%, 1 day later) was 4 and the “number … in control section” value (Coptotermes formosanus; concentration 50%, 1 day later) was 25.

For `CC(=O)CC/C=C(\C)CC/C=C(\C)CCC=C(C)C` [farnesylacetone], the “concentration of farnesylacetone in the dog kennel” value [1] was “not more than 1 μg/L”, the “time for which treated paper sheet maintained Blattella germanica control effect” value (Blattella germanica) was “at least 2 weeks” and the “concentration of farnesylacetone in the gas” value ([2]; sample bottle filled with vapor, water bath at 60° C.) was 20 µg/L. The “concentration of farnesylacetone in the gas” value ([2]; sample bottle saturated with vapor, oil bath at 130° C.) was 20,000 μg/L, the “odor and effect of sampled gas on human” value ([3]; gas containing 20,000 μg/L) was “had a strong odor, caused cough when inhaled in a large amount, and provoked uncomfortable feeling in human” and the “odor of sampled gas detected by human” value ([3]; gas further diluted 10-fold, printed as containing 0.01 μg/L) was “scarcely had an odor detected by human”. The “course of repellent effect of treated wire net bag on Culex pipiens” value [4] was “maintained at a high level even after 18 hr”, the “dog scratched its body (times a day)” value (fleas parasitic in dogs) was “twice a day” and the “death (number of the dead ants)” value (Coptotermes formosanus; concentration 1%, 1 day later) was 1. The repellence rate (Coptotermes formosanus; concentration 1%, 1 day later) was 86%, the “number … in test section” value (Coptotermes formosanus; concentration 1%, 1 day later) was 4 and the “number … in control section” value (Coptotermes formosanus; concentration 1%, 1 day later) was 25. For the same compound, the “death (number of the dead ants)” value (Coptotermes formosanus; concentration 1%, 4 days later) was 1, the repellence rate (Coptotermes formosanus; concentration 1%, 4 days later) was 100% and the “number … in test section” value (Coptotermes formosanus; concentration 1%, 4 days later) was 0. For the same compound, the “number … in control section” value (Coptotermes formosanus; concentration 1%, 4 days later) was 29, the “death (number of the dead ants)” value (Coptotermes formosanus; concentration 5%, 1 day later) was 2 and the repellence rate (Coptotermes formosanus; concentration 5%, 1 day later) was 100%. For the same compound, the “number … in test section” value (Coptotermes formosanus; concentration 5%, 1 day later) was 0, the “number … in control section” value (Coptotermes formosanus; concentration 5%, 1 day later) was 28 and the “death (number of the dead ants)” value (Coptotermes formosanus; concentration 5%, 4 days later) was 3. For the same compound, the repellence rate (Coptotermes formosanus; concentration 5%, 4 days later) was 96%, the “number … in test section” value (Coptotermes formosanus; concentration 5%, 4 days later) was 1 and the “number … in control section” value (Coptotermes formosanus; concentration 5%, 4 days later) was 26.

For `CCN(CC)C(=O)c1cccc(C)c1` [DEET, N,N-diethyl-m-tolamide, reference compound], the “course of repellent effect of treated wire net bag on Culex pipiens” value [4] was “decreases with time”.
